The text below walks through data of patent US8377963B2, “Insulin-regulated aminopeptidase (IRAP) inhibitors and uses thereof” (Howard Florey Institute, priority 2007, dated 2013).

Assay [1] relates to rats. The experiment in a line: Spontaneous alternation plus maze. The class given is in vivo, rat. To be noted: for Spontaneous Alternation Score (%): rats, n=8/group. The method, then:
All experiments were performed according to the National Health and Medical Research Council of Australia “Code of practise for the care and use of animals for scientific purposes”. Male Spraque Dawley rats, (250-270 g) are housed individually and given water and standard rat chow ad libitum. On the day of surgery, the rats were anaesthetized with 5% isofluorane, placed in a stereotaxic frame and maintained on 2% isofluorane for the duration of the cannula implantation procedure. The rats were stereotaxically implanted with chronic indwelling cannula (Plastics One) into the cerebral lateral ventricles using the following flat skull coordinates 0.8 mm posterior to Bregma, 1.55 mm lateral to midline and 3.5 mm ventral to the dura. The cannula was then secured to the skull with stainless steel screws and dental cement. Seven days following surgery, proper cannula placement was verified by a bolus injection of angiotensin II (1 nmol/μl).
The plus maze was composed of four arms with each arm measuring 75×10×20 cm. The floor and walls of the central platform and the floors of the arms were made of black plastic. Spontaneous alternation testing was conducted by placing the rat on the center platform of the maze and allowing 20 min of unimpeded exploration. The number and sequence of arm entries were recorded for calculation of a percent alternation score. An alternation consisted of 4 different arm choices of 5 consecutive arm entries. A ⅘ alternation score was computed by dividing the number of observed alternations in overlapping quintuplets by the number of possible alternations and multiplying the quotient by 100.

Assay [2] concerns the target T1, IRAP (Homo sapiens, UniProt Q9UIQ6).
T1 construct: expressed in transfected cells; host or cells: HEK 293T
The experiment in a line: IRAP enzymatic assay (hydrolysis of Leu-MCA). In kind it is biochemical. As to conditions: substrate Leu-MCA, solubilized membranes of HEK 293T cells transfected with IRAP. How it is done: An in vitro enzymatic assay was used to initially assess IRAP inhibitory activity.
After solubilization, the membranes were pelleted by centrifugation at 23,100 g for 15 min at 4° C., and the supernatant was reserved as the source of IRAP activity. The enzymatic activities of IRAP were determined by the hydrolysis of the synthetic substrate Leu-MCA (Sigma-Aldrich, Missouri, USA) monitored by the release of a fluorogenic product, MCA, at excitation and emission wavelengths of 380 and 440 nm, respectively. Assays were performed in 96-well plates; each well contains between […] solubilized membrane protein, a range of concentration of substrate in a final volume of 100 μL 50 mM Tris-HCl buffer (pH 7.4). Non-specific hydrolysis of the substrate was corrected by subtracting the emission from incubations with membranes transfected with empty vector. Reactions proceeded at 37° C. for 30 min within a thermostatted FLEX station fluorescence microplate reader (Molecular Devices, Sunnyvale, Calif.). […] Km values of IRAP for Leu-MCA were determined from the kinetic studies. […] All data obtained were from at least three separate experiments performed in duplicate.

In assay [3] the test system is Glucose-6-phosphate dehydrogenase/glucose hexokinase. The experiment in a line: Glucose-6-phosphate dehydrogenase and hexokinase activity, fluorimetric assay. To be noted: 100 μM.
Method: Glucose-6-phosphate dehydrogenase and hexokinase activity. Glucose-6-phosphate dehydrogenase and hexokinase activity in the absence and presence of the compounds was determined in a fluorimetric assay. Ten mM Tris MgCl2 buffer (total volume of 200 ml) containing glucose-6-phosphate dehydrogenase, 0.3M ATP, 30 mM NADP+ was added to 96 well microtitre plate together with 20 μl of compound, a reading at excitation 350 nm and emission 510 nm was taken followed by the addition of hexokinase and another reading.
Assay [4] addresses Angiotensin converting enzyme 1 (Homo sapiens, UniProt P12821). The experiment in a line: Angiotensin converting enzyme assay. In kind it is biochemical. As to conditions: read-out: % inhibition of the catalytic activity of the enzyme. How it is done:
Angiotensin converting enzyme assay. The enzyme (final concentration 0.02 pmol/100 L) was incubated with 200 μL of assay solution that included 5 mmol/L HHL in 100 mmol/L potassium buffer (pH 8.3) that contained 300 mmol/L NaCl and 10^−4 mol/L ZnSO4 for 3 hours at 37° C. The enzymatic reaction was stopped by the addition of 1.5 mL of 0.28N NaOH, 100 μL of o-phthaldialdehyde (20 mg/mL) in methanol was added and the fluorescent reaction stopped by the addition of 200 μL of 3N HCl. The product, L-His-Leu, was measured fluorometrically (360 nm excitation and 500 nm emission).
(§1) Limited inhibition of control enzymes was observed.

In assay [5] the target is T2, Aminopeptidase N (Sus scrofa, UniProt P15145).
T2 construct: purchased Sigma Aldrich
T2 sequence (P15145 1-963): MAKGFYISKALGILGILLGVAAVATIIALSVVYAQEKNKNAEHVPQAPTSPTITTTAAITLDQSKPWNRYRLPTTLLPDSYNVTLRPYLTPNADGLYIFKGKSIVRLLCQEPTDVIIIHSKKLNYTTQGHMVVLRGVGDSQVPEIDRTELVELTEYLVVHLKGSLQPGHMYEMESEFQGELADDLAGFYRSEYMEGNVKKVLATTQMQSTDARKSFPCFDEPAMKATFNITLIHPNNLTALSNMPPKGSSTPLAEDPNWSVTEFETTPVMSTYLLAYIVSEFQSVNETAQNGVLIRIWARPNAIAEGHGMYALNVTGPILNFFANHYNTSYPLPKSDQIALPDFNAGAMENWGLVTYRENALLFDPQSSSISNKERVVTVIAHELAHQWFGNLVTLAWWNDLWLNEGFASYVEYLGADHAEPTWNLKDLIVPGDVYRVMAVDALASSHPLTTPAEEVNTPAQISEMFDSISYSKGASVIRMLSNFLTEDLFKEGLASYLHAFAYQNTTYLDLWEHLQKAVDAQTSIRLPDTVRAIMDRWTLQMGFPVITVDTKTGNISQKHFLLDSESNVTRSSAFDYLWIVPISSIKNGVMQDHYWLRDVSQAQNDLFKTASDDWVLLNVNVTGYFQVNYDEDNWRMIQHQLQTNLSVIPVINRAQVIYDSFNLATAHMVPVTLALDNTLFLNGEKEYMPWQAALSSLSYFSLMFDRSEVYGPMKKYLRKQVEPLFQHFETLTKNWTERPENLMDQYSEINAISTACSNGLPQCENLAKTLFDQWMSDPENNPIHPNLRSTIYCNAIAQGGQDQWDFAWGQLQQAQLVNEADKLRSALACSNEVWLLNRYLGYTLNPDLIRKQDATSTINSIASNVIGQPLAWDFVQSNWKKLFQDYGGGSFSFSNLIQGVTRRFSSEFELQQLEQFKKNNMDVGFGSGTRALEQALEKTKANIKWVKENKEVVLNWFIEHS
The experiment in a line: Aminopeptidase N assay. In kind it is biochemical. To be noted: 10 μM; read-out: % inhibition of the catalytic activity of the enzyme. The method, then: Aminopeptidase N assay. 5 mU of aminopeptidase M (Sigma Aldrich) was incubated with 100 μM of substrate alanine-β-naphthylamide (Sigma Aldrich) in Tris buffered saline (50 mM Tris-HCl, 150 mM NaCl pH 7.5) at 25° C. IRAP inhibitors (1-10 μM) were added after 1 minute and fluorescence at 405 nm was followed.
as §1

T1 sequence (Q9UIQ6 whole entry): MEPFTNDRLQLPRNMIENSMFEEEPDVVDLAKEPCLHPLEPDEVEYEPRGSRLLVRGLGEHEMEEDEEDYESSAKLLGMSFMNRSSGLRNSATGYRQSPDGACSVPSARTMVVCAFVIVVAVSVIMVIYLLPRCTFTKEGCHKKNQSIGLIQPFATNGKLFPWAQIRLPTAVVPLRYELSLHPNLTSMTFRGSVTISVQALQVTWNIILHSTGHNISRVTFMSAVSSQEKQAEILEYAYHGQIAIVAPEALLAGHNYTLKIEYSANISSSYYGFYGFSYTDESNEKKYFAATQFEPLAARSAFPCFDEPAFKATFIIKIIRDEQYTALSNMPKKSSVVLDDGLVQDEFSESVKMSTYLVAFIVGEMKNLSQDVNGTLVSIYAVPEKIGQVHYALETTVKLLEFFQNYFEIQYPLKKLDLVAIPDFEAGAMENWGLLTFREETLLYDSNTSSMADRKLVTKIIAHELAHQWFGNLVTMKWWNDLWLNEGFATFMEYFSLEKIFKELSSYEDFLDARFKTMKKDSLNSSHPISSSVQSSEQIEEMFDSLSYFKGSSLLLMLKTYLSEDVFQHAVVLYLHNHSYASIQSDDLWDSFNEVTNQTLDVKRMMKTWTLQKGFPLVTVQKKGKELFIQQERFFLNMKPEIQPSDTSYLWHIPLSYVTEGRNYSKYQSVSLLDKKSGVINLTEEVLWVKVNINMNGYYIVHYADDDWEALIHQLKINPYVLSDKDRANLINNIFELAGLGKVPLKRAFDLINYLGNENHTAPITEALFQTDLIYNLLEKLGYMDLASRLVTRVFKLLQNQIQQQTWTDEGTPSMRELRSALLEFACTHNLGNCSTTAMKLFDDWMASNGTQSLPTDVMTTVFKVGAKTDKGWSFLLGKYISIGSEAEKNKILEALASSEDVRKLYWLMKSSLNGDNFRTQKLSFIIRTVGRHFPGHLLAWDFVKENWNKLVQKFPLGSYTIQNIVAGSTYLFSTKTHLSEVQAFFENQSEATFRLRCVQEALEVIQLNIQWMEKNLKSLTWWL
Sequence of Angiotensin converting enzyme 1 (P12821 30-1306): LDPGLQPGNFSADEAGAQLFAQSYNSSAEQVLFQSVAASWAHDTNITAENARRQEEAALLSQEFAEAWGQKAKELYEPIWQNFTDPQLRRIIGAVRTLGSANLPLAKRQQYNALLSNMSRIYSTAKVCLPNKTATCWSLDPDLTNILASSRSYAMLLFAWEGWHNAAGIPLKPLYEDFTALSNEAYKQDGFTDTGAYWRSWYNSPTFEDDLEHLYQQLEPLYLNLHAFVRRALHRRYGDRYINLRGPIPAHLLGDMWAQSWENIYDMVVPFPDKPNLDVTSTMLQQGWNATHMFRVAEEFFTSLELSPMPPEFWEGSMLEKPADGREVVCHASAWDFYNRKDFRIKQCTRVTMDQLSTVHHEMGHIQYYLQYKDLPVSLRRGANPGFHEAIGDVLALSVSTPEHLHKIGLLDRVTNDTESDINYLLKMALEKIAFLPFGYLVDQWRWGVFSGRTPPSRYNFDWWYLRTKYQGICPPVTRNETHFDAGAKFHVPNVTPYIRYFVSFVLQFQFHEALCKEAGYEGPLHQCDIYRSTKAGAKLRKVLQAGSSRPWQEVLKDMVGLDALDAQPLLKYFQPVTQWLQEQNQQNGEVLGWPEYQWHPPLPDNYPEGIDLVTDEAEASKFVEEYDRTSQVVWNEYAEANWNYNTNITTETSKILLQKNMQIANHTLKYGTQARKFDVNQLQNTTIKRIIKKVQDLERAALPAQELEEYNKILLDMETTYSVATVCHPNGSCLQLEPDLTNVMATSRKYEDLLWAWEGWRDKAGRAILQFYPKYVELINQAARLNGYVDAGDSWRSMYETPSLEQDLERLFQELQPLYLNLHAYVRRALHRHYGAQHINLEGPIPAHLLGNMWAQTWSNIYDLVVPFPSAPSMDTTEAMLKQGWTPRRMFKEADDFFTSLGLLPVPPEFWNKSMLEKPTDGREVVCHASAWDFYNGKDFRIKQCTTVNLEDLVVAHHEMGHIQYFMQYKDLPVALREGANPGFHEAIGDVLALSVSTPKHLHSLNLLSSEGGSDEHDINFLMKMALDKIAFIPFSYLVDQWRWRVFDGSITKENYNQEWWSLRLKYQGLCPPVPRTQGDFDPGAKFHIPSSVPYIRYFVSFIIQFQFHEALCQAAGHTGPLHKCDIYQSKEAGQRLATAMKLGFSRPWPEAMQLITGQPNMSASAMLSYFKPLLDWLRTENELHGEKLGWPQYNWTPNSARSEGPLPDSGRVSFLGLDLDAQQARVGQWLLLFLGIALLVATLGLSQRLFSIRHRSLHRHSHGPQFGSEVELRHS

Turning to `CCOC(=O)C1=C(NC(C)=O)Oc2cc(O)ccc2C1c1cccnc1` (stereo not drawn) [Compound 2, Ethyl 2-(acetylamino)-7-hydroxy-4-pyridin-3-yl-4H-chromene-3-carboxylate], the “Spontaneous Alternation Score (%)” value is listed as 73.70 ± 3.14 % in assay [1] (0.1 nmol intracerebroventricularly) and 64.34 ± 2.49% in assay [1] (1 nmol intracerebroventricularly). Moreover, in assay [1] (0.1 nmole, p<0.01), the “spontaneous alternation scores compared to vehicle treated control rats” value is recorded as “significantly enhanced spontaneous alternation scores”. In addition, in assay [2], the IC50 amounted to 0.79 µM. For the same molecule, the Ki in assay [2] (calculated from IC50=Ki(1+[S]/Km), read-out: K1) is 0.48 µM. Moreover, the “% inhibition of the catalytic activity of the enzyme” value in assay [3] was 0%. The inhibition at 10 µM is 9% in assay [4] (10 μM) and 13% in assay [5]. In assay [4] (100 μM), the inhibition at 100 µM is 3%.
